Data on 1 compound can be found in PMC11960969, “Mdga2 deficiency leads to an aberrant activation of BDNF/TrkB signaling that underlies autism-relevant synaptic and behavioral changes in mice” (PLOS Biology, 2025).

Assay [1] deals with mice. Nature of the assay: Novel location recognition (NLR) test. Type of assay: in vivo, mouse. On the procedure: (§1) Six- to eight-week-old male mice were subjected to various behavioral tests. Mice were allowed to acclimatize in the testing room for 1 h prior to each test. Data were recorded and analyzed using Smart 3.0 video tracking system (Panlab, Harvard Apparatus).
This test consists of habituation, training, and testing phases. Mice were first put into the open field apparatus described above for 10 min habituation. During the training phase, mice were allowed to freely explore two identical objects placed near two opposite corners of the open field arena for 8 min. Twenty-four hour later, one of the objects was moved to be close to a third corner (N: Novel location) while the other one was kept in the same spatial position (F: Familiar location). Mice were then tested for their exploration behavior with these objects for 8 min. The discrimination index (T(N − F)/T(N + F): time spent exploring the novel location minus time spent in familiar location over time spent to both novel and familiar location) was calculated to assess the recognition memory of mice.

In assay [2] the test system is TrkB signaling and synaptic proteins (pTrkB, pAkt, pmTOR, NLGN1, PSD-95, PSD-93). The assay is described as follows: Immunoblotting of TrkB signaling and synaptic proteins in primary neurons treated with ANA-12. It is filed as cell-based, mouse. To be noted: primary neurons from Mdga2+/- and Mdga2-/- mice, 10 μM, 24 h, n = 3. For orientation: Immunoblotting shows a protein as a band on a membrane.

Assay [3] deals with mice. Nature of the assay: Three-chamber test (sociability and social novelty). It is filed as in vivo, mouse. On the procedure: as §1
This test was performed as described previously with minor modifications. The apparatus (60 W × 40 D × 22 H cm) has two transparent partitions separating the left, the middle, and the right chambers (20 × 40 cm each), and each partition has a small opening (5 × 5 cm) for access to each chamber. A fixed wire cylinder (8.5 cm diameter) was placed in each of the left and the right chambers. This test consisted of three phases: habituation, sociability test, and social novelty test. During habituation, both left and right cylinders were empty, and tested mice were placed in the center and allowed to explore freely for 10 min. During the sociability test, a gender-matched strange mouse (S1) was enclosed in one empty cylinder, and mice were allowed to freely explore for 10 min. Their time spent sniffing S1 or the other empty cylinder (E) was measured and the sociability preference index (T(S1 − -E)/T(S1 + E): time spent sniffing S1 minus time spent sniffing E over time spent sniffing both S1 and E) was calculated for comparison. During the social novelty test, another gender-matched unfamiliar mouse (S2) was placed into the empty cylinder and mice were allowed to freely explore for another 10 min. Their time spent sniffing S1 or S2 was measured and the social novelty preference index (T(S2 − S1)/T(S2 + S1): time spent sniffing S2 minus time spent sniffing S1 over time spent sniffing both S2 and S1) was calculated for comparison.

The test system of assay [4] is mice. The assay is described as follows: Self-grooming test. It is filed as in vivo, mouse. To be noted: Mdga2+/- mice, chronic 0.5 mg/kg i.p.; Test 1 Interaction F(1,56) = 0.1344, p = 0.7153; Test 2 F(1,56) = 0.2389, p = 0.6269. On the procedure: as §1
Tested mice were placed individually in a clean cage with fresh bedding. After 5 min of habituation, the spontaneous behaviors of mice were recorded for 30 min and their self-grooming behavior was analyzed.

Assay [5] deals with cell surface GluA1, GluN1. The assay is described as follows: Cell surface biotinylation of GluA1 and GluN1 in hippocampal neurons. It is filed as cell-based, mouse. The following applies: 10 μM ANA-12, 24 h, 12 DIV. On the procedure:
ANA-12 was dissolved in saline containing 10% DMSO to a final concentration of 0.5 mg/kg and intraperitoneally administered into male mice. For chronic treatment, ANA-12 was administered to 3-week-old male mice at twice/week for 3 weeks until mice reached 6 weeks of age. For acute treatment, ANA-12 was administered to 4-week-old male mice for three consecutive days. For and cultured neurons, ANA-12 was suspended to a 10 mM concentration in DMSO and diluted 1:1,000 in solution. Final concentration for treatment is 10 µ M with 0.1% DMSO.
Supplementary file pbio.3003047.s005.tif: S5 Fig Pharmacological inhibition of […] improves social behaviors in Mdga2 ^+/− mice. (A, B) The miniature inhibitory postsynaptic currents (mIPSCs) of hippocampal neurons in treated Het mice and their wild-type (WT) littermates were recorded and their kinetics (rise time and decay) were quantified for comparison. n = 14 cells from 3 mice per group. (C, D) The miniature excitatory postsynaptic currents (mEPSCs) of hippocampal neurons in treated mice were recorded and their kinetics (rise time and decay) were quantified for comparison. n = 14 cells from 3 mice per group. (E) Representative traces of evoked NMDAR-mediated EPSCs and quantitative analysis of evoked NMDAR-mediated EPSC amplitude with increasing stimulus intensity. n = 20–23 cells from 3 mice per group. […]

Consider `O=C(Nc1ccccc1C(=O)NC1CCCCNC1=O)c1cc2ccccc2s1` (stereo not shown) [ANA-12, reference compound], for which, in assay [1] (AAV-Mdga2 shRNA mice, S6C and S6G Fig), the impaired recognition memory result was “neither ANA-12 nor the MDGA2-P2 peptide had effect on rescuing impaired recognition memory”. Further, the impaired cognitive function result in assay [1] (Mdga2+/- mice, acute 0.5 mg/kg i.p. 3 days, Test 1 Interaction F(1,56) = 3.941, p = 0.0520, Test 2 F(1,56) = 0.9635, p = 0.3305) was “nor did it attenuate impaired cognitive function”. Also, the recognition memory result in assay [1] (Mdga2+/- mice, chronic 0.5 mg/kg i.p. twice per week 3 weeks, Test 1 Interaction F(1,56) = 0.6210, p = 0.4340, Test 2 F(1,56) = 0.7506, p = 0.3900) is recorded as “did not affect the locomotor activity (Fig 5B) or recognition memory”. Also, the “increased levels of pTrkB, pAkt, pmTOR, NLGN1, PSD-95, and PSD-93” value in assay [2] is “effectively reversed increased levels of pTrkB, pAkt, pmTOR, NLGN1, PSD-95, and PSD-93”. For the same compound, in assay [3] (AAV-Mdga2 shRNA mice, ANA-12 0.5 mg/kg i.p. twice per week 3 weeks, n = 10, Fig 6D), the “impaired sociability and social novelty deficits (three-chamber)” value was “rescued impaired sociability and social novelty deficits”. For the same compound, in assay [3] (Mdga2+/- mice, acute 0.5 mg/kg i.p. 3 days, acute Test 1: Interaction F(1,56) = 9.336, p = 0.0034), the sociability preference entry is on record as “significantly higher sociability preference when compared to controls in acute Test 1”. Also, the “impaired sociability and social novelty” value in assay [3] (Mdga2+/- mice, chronic 0.5 mg/kg i.p., chronic Test 1, sociability F(1,56) = 13.52, p = 0.0005, novelty F(1,56) = 3.144, p = 0.0817) was “significantly improved impaired sociability and social novelty”. For the same compound, the impaired sociability result in assay [3] (Mdga2+/- mice, chronic 0.5 mg/kg i.p., chronic Test 2, Interaction F(1,56) = 7.339, p = 0.0089) is given as “significantly improved impaired sociability in Mdga2^ +/− mice in chronic Test 2”. Moreover, the repetitive self-grooming behavior result in assay [4] is “no rescuing effect on repetitive self-grooming behavior”. Besides, the “cell surface distribution of GluA1 in MDGA2-deficient vs WT neurons” value in assay [5] is given as “became comparable between these neurons upon ANA-12 treatment”.
